Values after ≈ are worked out from the molar mass of the structure shown. Like-named read-outs stand apart in the source and are kept apart here.
How the values were obtained:
[1] = tested on: Staphylococcus aureus ATCC12600; assay: MIC assay, wild type S. aureus ATCC 12600; type: cell-based
M. tuberculosis H37Rv = assay: Antibiotic assay against Mycobacterium tuberculosis (IC90); type: cell-based; settings: for MIC: read-out: IC90 (footnote a; column head MIC)
[2] = target: T1, S447L mutant DNA-dependent RNA polymerase from Mycobacterium smegmatis (Mycolicibacterium smegmatis, UniProt P60281, S447L); type: biochemical; settings: S447L M. smegmatis RNAP mutant
T1 construct: made in house

[3] = tested on: Staphylococcus aureus USA100; assay: MIC assay, S. aureus USA100
Method: (§1) Minimum Inhibitory Concentration (MIC) and Minimal Bactericidal Concentration (MBC) Assays. […] Specifically, overnight cultures in an appropriate broth (e.g., Luria Bertani, Mueller-Hinton II) were diluted to 5×10^5 cfu/mL and used to fill wells of a 96-well plate. […] The plates were incubated on a shaker (200 rpm) at 35-37° C. for 18-20 hours, and then the optical density was measured at 595 nm on a microplate reader.

[4] = tested on: Staphylococcus aureus USA200; assay: MIC assay, S. aureus USA200
Method: as §1

[5] = tested on: Staphylococcus aureus USA800; assay: MIC assay, S. aureus USA800
Method: as §1

[6] = tested on: Staphylococcus aureus ATCC BAA-42; assay: MIC assay, S. aureus ATCC BAA-42
Method: as §1

[7] = tested on: Staphylococcus aureus ATCC BAA-1721; assay: MIC assay, S. aureus ATCC BAA-1721
Method: as §1

[8] = tested on: Salmonella enterica IR715; assay: MIC assay, Salmonella enterica IR715
Method: (§2) Minimum Inhibitory Concentration (MIC) and Minimal Bactericidal Concentration (MBC) Assays. […] Specifically, overnight cultures in an appropriate broth (e.g., Luria Bertani, Mueller-Hinton II) were diluted to 5×10^5 cfu/mL and used to fill wells of a 96-well plate. […] The plates were incubated on a shaker (200 rpm) at 35-37° C. for 18-20 hours, and then the optical density was measured at 595 nm on a microplate reader. Samples of each well without visible growth were diluted and spread on LB agar petri dishes. The petri dishes were incubated overnight at 37° C., and the colonies were counted.

[9] = tested on: Staphylococcus aureus NCTC 8325 pT181; assay: MIC assay, S. aureus NCTC 8325 pT181
Method: as §1

[10] = tested on: Enterococcus faecium Com15; assay: MIC assay, Enterococcus faecium Com15
Method: as §1

[11] = tested on: Proteus mirabilis ATCC29906; assay: MIC assay, Proteus mirabilis ATCC29906
Method: as §2

[12] = tested on: Pseudomonas aeruginosa PAO1; assay: MIC assay, Pseudomonas aeruginosa PAO1
Method: as §1

[13] = tested on: Listeria monocytogenes ATCC15313; assay: MIC assay, Listeria monocytogenes ATCC15313
Method: as §1

[14] = tested on: Staphylococcus epidermidis RP62A; assay: MIC assay, Staphylococcus epidermidis RP62A
Method: as §1

[15] = tested on: Acinetobacter baumannii ATCC17978; assay: MIC assay, Acinetobacter baumannii ATCC17978
Method: as §2

[16] = tested on: rifamycin resistant S. aureus strains carrying RNAP mutations; assay: Activity against rifamycin resistant S. aureus strains carrying RNAP mutations; settings: FIG. 6D
[17] = tested on: S. aureus ATCC 12600 D471Y mutant strain
[18] = tested on: S. aureus ATCC 12600 D471Y mutant strain; assay: microbe, parasite or virus in culture; settings: Staphylococcus aureus, ATCC12600
[19] = Mycobacterium tuberculosis H37Rv, Table 5
[20] = Mycobacterium tuberculosis, H37RV
[21] = Staphylococcus aureus, ATCCBAA42
[22] = Staphylococcus aureus, ATCCBAA1721
[23] = Staphylococcus aureus, NCTC8325

| Compound | MIC [1] [µg/mL] | MIC (M. tuberculosis H37Rv; [19]) [µg/mL] | IC90 (M. tuberculosis H37Rv; [20]) [µM] | MIC [3] [µg/mL] | MIC [4] [µg/mL] | MIC [5] [µg/mL] | MIC [6, 21] [µg/mL] | MIC [7, 22] [µg/mL] | MIC [8] [µg/mL] | MIC [9, 23] [µg/mL] | MIC ([10]; Enterococcus faecium, COM15) [µg/mL] | MIC [11] [µg/mL] | MIC [12] [µg/mL] | MIC [13] [µg/mL] | MIC [14] [µg/mL] | MIC [15] [µg/mL] | activity against rifamycin resistant S. aureus strains [16] | MIC [18] [µg/mL] | also measured |
| --- | --- | --- | --- | --- | --- | --- | --- | --- | --- | --- | --- | --- | --- | --- | --- | --- | --- | --- | --- |
| CC(=O)OC1C(C)C(OC2CC3OCOC3C(C)O2)/C=C/OC2(C)OC3=C(C)C(=O)c4c(O)c(cc5c4C3=C2OCO5)NC(=O)/C(C)=C\C=C\C(C(C)OC(=O)C(C)(C)CC(=O)O)C(O)C(C)C(O)C1C (stereo not drawn) [Kang V2, kanglemycin V2] | 0.62 (≈ 0.622 µM) | 1.6 (≈ 1.61 µM) | 1.56 | 1 (≈ 1 µM) | 2 (≈ 2.01 µM) | 1 (≈ 1 µM) | 1 (≈ 1 µM) | 0.25 (≈ 0.251 µM) | > 64 | 0.25 (≈ 0.251 µM) | 64 (≈ 64.3 µM) | > 64 | 64 (≈ 64.3 µM) | 1 (≈ 1 µM) | 0.25 (≈ 0.251 µM) | > 64 | active | – | in vitro activity against RNAP (run-off transcription) [2]: highest potency |
| CC(=O)OC1C(C)C(OC2CC3OCOC3C(C)O2)/C=C/OC2(C)CC(O)c3c(c(C)c(O)c4c3C(=O)C=C(NC(=O)/C(C)=C\C=C\C(C(C)OC(=O)C(C)(C)CC(=O)O)C(O)C(C)C(O)C1C)C4=O)O2 (stereo not drawn) [Kang V1, kanglemycin V1] | 0.069 (≈ 0.0691 µM) | 3.1 (≈ 3.11 µM) | 3.12 | 0.13 (≈ 0.13 µM) | 0.25 (≈ 0.25 µM) | 0.063 (≈ 0.0631 µM) | 0.13 (≈ 0.13 µM) | 0.063 (≈ 0.0631 µM) | > 64 | 0.063 (≈ 0.0631 µM) | 32 (≈ 32.1 µM) | > 64 | 64 (≈ 64.1 µM) | 1 (≈ 1 µM) | 0.031 (≈ 0.0311 µM) | > 64 | active | 0.069 (≈ 0.0691 µM) | fold lower MIC than rifampicin [17]: ~80 fold |
| CO[C@H]1/C=C/O[C@@]2(C)Oc3c(C)c(O)c4c(O)c(c(/C=N/N5CCN(C)CC5)c(O)c4c3C2=O)NC(=O)/C(C)=C\C=C\[C@H](C)[C@H](O)[C@@H](C)[C@@H](O)[C@@H](C)[C@H](OC(C)=O)[C@@H]1C [Rifampicin, rifampicin, reference compound] | – | 0.2 (≈ 0.243 µM) | – | 0.0078 (≈ 0.00948 µM) | 0.0078 (≈ 0.00948 µM) | 0.016 (≈ 0.0194 µM) | 0.016 (≈ 0.0194 µM) | 0.0078 (≈ 0.00948 µM) | – | 0.031 (≈ 0.0377 µM) | 4 (≈ 4.86 µM) | – | 32 (≈ 38.9 µM) | 0.031 (≈ 0.0377 µM) | 0.016 (≈ 0.0194 µM) | – | – | 5.6 (≈ 6.8 µM) | MIC ([1]; read-out: MIC): 0.023 µg/mL (≈ 0.0279 µM) |
| CC(=O)O[C@@H]1[C@@H](C)[C@@H](O)[C@@H](C)[C@@H](O)[C@@H]([C@@H](C)OC(=O)C(C)(C)CC(=O)O)/C=C/C=C(\C)C(=O)NC2=CC(=O)c3c(c(O)c(C)c4c3C(=O)[C@](C)(O/C=C/[C@H](O[C@@H]3C[C@@H]5OCO[C@@H]5[C@H](C)O3)[C@H]1C)O4)C2=O [Kang A, kanglemycin A, reference compound] | 0.62 (≈ 0.631 µM) | – | – | 1.0 (≈ 1.02 µM) | 2.0 (≈ 2.04 µM) | 0.5 (≈ 0.509 µM) | – | – | >64 | – | – | >64 | 64 (≈ 65.2 µM) | 2.0 (≈ 2.04 µM) | 0.25 (≈ 0.255 µM) | >64 | – | – | IC90 (M. tuberculosis H37Rv; M. tuberculosis H37Rv, read-out: IC90): 12.5 µM; IC90 (footnote a; column head MIC) (M. tuberculosis H37Rv; [19]): 13 µg/mL (≈ 13.2 µM); MIC ([6]; Staphylococcus aureus ATCC BAA-42): 1.0 µg/mL (≈ 1.02 µM); MIC ([7]; Staphylococcus aureus ATCC BAA-1721): 2.0 µg/mL (≈ 2.04 µM); MIC ([9]; Staphylococcus aureus NCTC 8325 pT181): 0.25 µg/mL (≈ 0.255 µM); MIC ([10]; Enterococcus faecium Com15): 64 µg/mL (≈ 65.2 µM) |

Reference: patent US11325920B2, “Antibacterial compounds, compositions thereof, and methods using same” (The Rockefeller University, priority 2018, dated 2022)
